# Experimental data from patent publication US20080287467A1, “Therapeutic Agent for Respiratory Diseases” (priority 2004, published 2008).
# Like-named read-outs stand apart in the source and are kept apart here.
# Tested on: swine bronchial smooth muscle cells
# Experiment: Patch cramp (whole-cell) measurement of membrane current and membrane potential, ATP-induced inward current
# Type: cell-based
# From the text: In the present specification, the patch cramp method is a method including allowing a glass micropipette (patch electrode) to attach tightly to cell membrane at a high resistance in giga-ohms (GΩ) or more and then measuring ion currents in conditions that a very small membrane region (patch membrane) on the top opening of the electrode is electrically isolated from other regions. In particular, the inventors measured and analyzed electric currents by the whole-cell mode including opening a hole by breaking the patch membrane to record ion current flowing through the whole cell membrane except the broken patch membrane.
# Swine bronchial smooth muscle tissue was finely chopped and incubated at 37° C. for 40 minutes, using collagenase and papain, to isolate the cells.
compound,measurement,setting,value
"Nc1ncnc2c1ncn2[C@@H]1O[C@H](COP(=O)(O)OP(=O)(O)OP(=O)(O)O)[C@@H](O)[C@H]1O [ATP, adenosine-5′-triphosphate]",cellular membrane potential after depolarization due to ATP,"electric current fixed, depolarized from −40 mV",−20 mV
same,membrane current on ATP administration,membrane potential maintained at −40 mV,inward current passed
"Cc1nc(N=Nc2ccc(S(=O)(=O)O)cc2S(=O)(=O)O)c(COP(=O)(O)O)c(C=O)c1O [PPADS, pyridoxal phosphate-6-azophenyl-2′,4′-disulfonic acid]",suppression of the ATP-induced inward current,concentration not given,No suppression
COc1ccc(CCCOC(Cn2ccnc2)c2ccc(OC)cc2)cc1 (stereo not shown) [SKF 96365],suppression of the ATP-induced inward current,,about 50%
COc1ccc2c(c1)CC[C@@H]1[C@@H]2CC[C@]2(C)[C@@H](NCCCCCCN3C(=O)C=CC3=O)CC[C@@H]12 [U-73122],suppression of the ATP-induced inward current,"treatment with 100 μM, subsequent ATP dosing",no suppression
Cc1ccc(C(=O)Nc2ccc(S(=O)(=O)O)c3cc(S(=O)(=O)O)cc(S(=O)(=O)O)c23)cc1NC(=O)c1cccc(NC(=O)Nc2cccc(C(=O)Nc3cc(C(=O)Nc4ccc(S(=O)(=O)O)c5cc(S(=O)(=O)O)cc(S(=O)(=O)O)c45)ccc3C)c2)c1 [suramin],suppression of the ATP-induced inward current,concentration not given,No suppression
ivermectin,enhancement of the ATP-induced inward current,FIG. 2,3.5 fold
